Measured values as given in BigSolDB 2.1.

c1ccc2ccccc2c1
Conditions | solubility (mole fraction)
in acetone, 297.17 K | 0.211
in acetone, 298.11 K | 0.218
in acetone, 300.23 K | 0.233
in acetone, 301.55 K | 0.246
in acetone, 303.47 K | 0.259
in acetone, 305.14 K | 0.272
in acetone, 306.63 K | 0.285
in acetone, 307.76 K | 0.297
in acetone, 309.37 K | 0.31
in acetone, 311.03 K | 0.323
in acetone, 312.03 K | 0.335
in acetone, 312.97 K | 0.347
in acetone, 314.37 K | 0.361
in acetone, 315.74 K | 0.376
in acetone, 317.26 K | 0.394
in acetone, 319.06 K | 0.415
in acetone, 320.87 K | 0.44
in acetone, 322.7 K | 0.459
in ethanol, 304.26 K | 0.0464
in ethanol, 307.44 K | 0.0531
in ethanol, 309.53 K | 0.0566
in ethanol, 311.93 K | 0.0614
in ethanol, 314.52 K | 0.0658
in ethanol, 315.93 K | 0.0703
in ethanol, 318.07 K | 0.076
in ethanol, 319.8 K | 0.0816
in ethanol, 321.46 K | 0.0876
in ethanol, 323.45 K | 0.103
in ethanol, 325.68 K | 0.116
in ethanol, 327.32 K | 0.129
in ethanol, 329.34 K | 0.14
in ethanol, 330.43 K | 0.154
in ethanol, 332 K | 0.174
in ethanol, 333.9 K | 0.204
in ethanol, 335.9 K | 0.238
in ethanol, 337.76 K | 0.293
in ethanol, 339.76 K | 0.382
in n-butanol, 313.77 K | 0.113
in n-butanol, 315.17 K | 0.119
in n-butanol, 317.98 K | 0.139
in n-butanol, 320.74 K | 0.159
in n-butanol, 323.67 K | 0.183
in n-butanol, 325.6 K | 0.205
in n-butanol, 327.76 K | 0.228
in n-butanol, 329.03 K | 0.252
in n-butanol, 331.8 K | 0.294
in n-butanol, 333.65 K | 0.333
in n-butanol, 335.1 K | 0.375
in n-butanol, 337 K | 0.436
in n-butanol, 338.15 K | 0.477
in n-butanol, 339.63 K | 0.526
in n-butanol, 340.65 K | 0.567
in n-butanol, 342.04 K | 0.62
in n-butanol, 342.8 K | 0.66
in n-heptane, 290.25 K | 0.0595
in n-heptane, 294.3 K | 0.0705
in n-heptane, 297.85 K | 0.0798
in n-heptane, 301.37 K | 0.0889
in n-heptane, 303.04 K | 0.0978
in n-heptane, 305.3 K | 0.107
in n-heptane, 307.53 K | 0.115
in n-heptane, 309.63 K | 0.123
in n-heptane, 311.2 K | 0.133
in n-heptane, 312.6 K | 0.141
in n-heptane, 314.13 K | 0.15
in n-heptane, 315.15 K | 0.158
in n-heptane, 316.63 K | 0.168
in n-heptane, 317.65 K | 0.177
in n-heptane, 321.33 K | 0.209
in n-heptane, 324.25 K | 0.23
in n-heptane, 326.98 K | 0.265
in n-heptane, 329.45 K | 0.304
in n-heptane, 330.26 K | 0.329
in n-heptane, 331.5 K | 0.35
in n-heptane, 333.75 K | 0.389
in toluene, 291.35 K | 0.239
in toluene, 301.45 K | 0.31
in toluene, 304.54 K | 0.34
in toluene, 308.53 K | 0.374
in toluene, 311.93 K | 0.406
in toluene, 315.25 K | 0.439
in toluene, 318.55 K | 0.472
in toluene, 322.23 K | 0.503
in toluene, 324.37 K | 0.537
in toluene, 327.55 K | 0.589
in toluene, 331.35 K | 0.637
in toluene, 334.65 K | 0.677
